Drawing on PubChem BioAssay AID651973 (The Scripps Research Institute Molecular Screening Center, 2013), this text covers IC50 for 59 compounds.

The test system of the assay is Cell-based VP16 transactivation luciferase reporter, luminescence. As to the kind of experiment: VP16 transactivation reporter inhibitors, dose response, counter-screen for LRH-1 inverse agonist project, cell-based, luminescence (AID 651973).

Each structure is given as a SMILES string. Activity calls are given as the source filed them. How the calls were made is not given here.

What is called IC50 is the midpoint of a concentration-inhibition curve. For the compound `CCC(=O)Nc1nnc(SCC(=O)NCCc2ccc(OC)c(OC)c2)s1`, the IC50 is > 35.9 µM (inactive).

As for `Cc1ccc(NC(=O)COC(=O)C(NS(=O)(=O)c2ccc(Cl)cc2)C(C)O)cc1C` (centres undefined), the IC50 was > 35.9 µM (inactive).

Consider `O=C(COC(=O)c1ccc[n+]([O-])c1)Nc1ccc([N+](=O)[O-])cc1Cl`, for which the IC50 was > 35.9 µM (inactive).

On to `CC(=O)Nc1ccc(NC(=O)CSc2ccc(-c3ccc(-n4ccnc4)cc3)nn2)cc1`, for which the IC50 was > 35.9 µM (inactive).

For `Cc1cc(Br)ccc1NC(=O)CSc1nnc(CN2CCOCC2)n1C`, the IC50 was > 35.9 µM (inactive).

For `Cc1ccc(NC(=O)CSc2sc3c(O)cc(=O)[nH]c3c2C#N)c(F)c1`, the IC50 was > 35.9 µM (inactive).

Turning to `COc1cc(C(=O)Nc2ccccc2N2CCN(S(C)(=O)=O)CC2)cc(OC)c1OC`, the IC50 is > 35.9 µM (inactive).

For `COC(=O)c1ccc(N2CCCCC2)c(NC(=O)c2ccco2)c1`, the IC50 was 13.3 µM (inactive).

As to `CCOc1ccc(NC(=O)COC(=O)C2CCC(=O)N2)c([N+](=O)[O-])c1` (centres undefined), the IC50 is > 35.8 µM (inactive).

In the case of `COc1ccc(NC(=O)CSc2nnc3ccc(-c4cccnc4)nn23)cc1OC`, the IC50 was > 35.9 µM (inactive).

For `Cc1cc(NC(=O)c2ccc([N+](=O)[O-])o2)ccc1NC(=O)c1ccco1`, the IC50 was > 35.9 µM (inactive).

In the case of `CCCN(CC(=O)Nc1ccc(C(N)=O)cc1)CC(=O)Nc1ccccc1C`, the IC50 was > 35.9 µM (inactive).

As for `CN(C)S(=O)(=O)c1cccc(C(=O)OCC(=O)Nc2ccc3c(c2)OCCO3)c1`, the IC50 was > 35.9 µM (inactive).

Turning to `O=C(Nc1ccccc1C(=O)Nc1nccs1)c1ccccc1`, the IC50 is 14.7 µM (inactive).

Take `COc1ccc(OC)c(NC(=O)c2ccccc2NC(=O)c2ccco2)c1`: the IC50 was > 35.9 µM (inactive).

As for `COc1ccc(NC(=O)COC(=O)c2c(-c3ccccc3)noc2C)cc1`, the IC50 is > 35.9 µM (inactive).

With `COc1ccc(NC(=O)COC(=O)Cc2c[nH]c3ccccc23)cc1Cl`, the IC50 was > 35.9 µM (inactive).

Turning to `CC(C)CC1(C)NC(=O)N(CC(=O)Nc2ccc3c(c2)OCCO3)C1=O` (centres undefined), the IC50 was > 35.9 µM (inactive).

As to `CCOc1ccc(OCCN2C(=O)NC(Cc3c[nH]c4ccccc34)C2=O)cc1` (centres undefined), the IC50 is > 35.9 µM (inactive).

Regarding `Cc1ccccc1C(=O)NC1CCN(CC(=O)Nc2ccc(Br)cc2)CC1`, the IC50 is > 35.9 µM (inactive).

For the compound `CCc1cc(=O)oc2c(C)c(OCC(=O)NCCCN3CCCC3=O)ccc12`, the IC50 was > 35.9 µM (inactive).

For `CC(=O)Nc1ccc(NC(=O)CSc2nnc(-c3cc4ccccc4o3)n2C)cc1`, the IC50 is > 35.9 µM (inactive).

For `COc1ccc(NC(=O)CSc2nc3nc(C)cc(C)c3c(=O)[nH]2)cc1`, the IC50 is > 35.9 µM (inactive).

Consider `COc1ccc(NC(=O)CS(=O)(=O)c2ccc(C)cc2)c(OC)c1`, for which the IC50 was > 35.9 µM (inactive).

Consider `O=C(CSc1nnc(CNC(=O)c2c(F)cccc2F)o1)Nc1ccc2c(c1)OCCO2`, for which the IC50 was > 35.9 µM (inactive).

As to `CC(=O)Nc1ccc(NC(=O)CSc2nnc(NC(=O)C3CC3)s2)cc1`, the IC50 is > 35.9 µM (inactive).

As to `O=C(OCC(=O)N1CCN(C(=O)COC(=O)c2ccc(O)cc2O)CC1)c1ccc(O)cc1O`, the IC50 is > 35.9 µM (inactive).

`O=C(COc1ccc2c3c(c(=O)oc2c1)CCCC3)NCCN1CCOCC1`: the IC50 was > 35.8 µM (inactive).

As for `COc1ccc(NS(=O)(=O)c2ccc(OCC(=O)N3CCN(C)CC3)cc2)cc1Cl`, the IC50 was > 35.9 µM (inactive).

As for `Cc1cc(=O)oc2c(C)c(OCC(=O)NC3CC(C)(C)NC(C)(C)C3)ccc12`, the IC50 was > 35.9 µM (inactive).

With `COc1ccc(NC(=O)CSc2nc(N)c(-c3ccccc3)c(=O)[nH]2)cc1`, the IC50 was > 35.9 µM (inactive).

Regarding `Cc1ccc2cccc(OCC(=O)NCCC3=CCCCC3)c2n1`, the IC50 was > 35.8 µM (inactive).

Consider `COc1ccc(S(=O)(=O)N2CCN(CC(=O)Nc3ccc(C)c(F)c3)CC2)cc1`, for which the IC50 is > 35.9 µM (inactive).

Turning to `O=C(COc1ccc2c3c(c(=O)oc2c1)CCCC3)NCCCN1CCOCC1`, the IC50 is > 35.9 µM (inactive).

For `CCCc1nnc(SCC(=O)Nc2ccc(C(=O)OCC)cc2)o1`, the IC50 is > 35.9 µM (inactive).

Consider `O=C(CSc1nnc(CNC(=O)c2ccccc2F)o1)Nc1ccc2c(c1)OCCO2`, for which the IC50 was > 35.9 µM (inactive).

Consider `NC(=O)C1CCN(C(=O)COc2ccc3c4c(c(=O)oc3c2)CCCC4)CC1`, for which the IC50 is > 35.9 µM (inactive).

For the compound `Cc1no[n+]([O-])c1COc1ccc(/C=N/n2nnnc2N)cc1`, the IC50 is > 35.9 µM (inactive).

With `COc1ccccc1NC(=O)CN1CCN(CC(=O)Nc2ccc3c(c2)OCCO3)CC1`, the IC50 is > 35.9 µM (inactive).

In the case of `O=C(CN1C(=O)NC2(CCCCC2)C1=O)NCCc1c[nH]c2ccccc12`, the IC50 was > 35.9 µM (inactive).

In the case of `COc1ccc(/C=N/NC(=O)c2ccc(NC(=O)c3cccc([N+](=O)[O-])c3)cc2)c(OC)c1`, the IC50 is > 35.9 µM (inactive).

As to `O=C(CSc1nncc(=O)[nH]1)Nc1cccc([N+](=O)[O-])c1`, the IC50 was 34.4 µM (inactive).

For the compound `COC(=O)c1ccc(NC(=O)CSc2nc3ncccc3[nH]2)cc1`, the IC50 is > 35.9 µM (inactive).

For `COc1ccc(CCNC(=O)CSc2nc3[nH]c(=O)cc(O)c3s2)cc1`, the IC50 was > 35.9 µM (inactive).

For the compound `O=C(COC(=O)CCN1C(=O)C2CC=CCC2C1=O)NCCc1ccccc1` (centres undefined), the IC50 is > 35.9 µM (inactive).

For the compound `CCCc1cc(=O)oc2cc(OCC(=O)NCCc3ccc(S(N)(=O)=O)cc3)ccc12`, the IC50 was > 35.9 µM (inactive).

In the case of `CS(=O)(=O)c1ccc(-c2cc(NC=O)c3ncc(-c4ccc(F)cc4)n3c2)cc1`, the IC50 is 14.6 µM (inactive).

Turning to `O=C(CCl)NCCCN(C(=O)C(Cl)Cl)c1ccc([N+](=O)[O-])cc1`, the IC50 was 28.4 µM (inactive).

On to `COCCNc1ccc([N+](=O)[O-])cc1C(=O)NC1CCCc2ccccc21` (centres undefined), for which the IC50 was > 35.9 µM (inactive).

For `CCOc1ccc(NC(=O)COC(=O)CC2CCCCC2)cc1`, the IC50 was > 35.9 µM (inactive).

As for `CCOc1ccc(NC(=O)CSc2nncc(=O)n2N)cc1`, the IC50 is > 35.9 µM (inactive).

Take `COc1cc(OC)cc(C(=O)N[C@H](C(=O)OCC(=O)Nc2ccc3c(c2)OCO3)C(C)C)c1`: the IC50 was > 35.9 µM (inactive).

With `CC(=O)Nc1cc(-c2ccc(S(C)(=O)=O)cc2)cn2c(-c3ccc(F)cc3)cnc12`, the IC50 is > 35.9 µM (inactive).

Consider `CCOc1ccc(NC(=O)CSc2nnc(C(C)C)n2CC)cc1`, for which the IC50 was > 35.9 µM (inactive).

As for `CCOc1ccc(NC(=O)CN2CCN(CC(=O)Nc3ccc(OC)cc3)CC2)cc1`, the IC50 was > 35.9 µM (inactive).

Consider `Cn1cc(Cl)c(C(=O)OCC(=O)Nc2ccc(S(N)(=O)=O)cc2)n1`, for which the IC50 was > 35.9 µM (inactive).

For the compound `COc1ccc(CCn2c(C)cc(C(=O)COC(=O)c3ccc(O)cc3O)c2C)cc1`, the IC50 was > 35.9 µM (inactive).

Consider `Cc1cc(C)c2c(=O)[nH]c(SCC(=O)Nc3ccc(Br)cc3)nc2n1`, for which the IC50 is > 35.9 µM (inactive).

Turning to `O=C(Nc1ccccc1)c1oc2ccccc2c1NC(=O)C1CC1`, the IC50 is > 35.9 µM (inactive).
